From patent US7629375B2, “Cytoprotective compounds, pharmaceutical and cosmetic formulations, and methods” (Johnson & Johnson Consumer Companies, Inc., priority 2001, dated 2009)

Tested on: neonatal cardiomyocytes
Assay: Myocyte calcium-contractility assay
Format: cell-based, rat
Conditions: anaerobic chamber 16 hours in DMEM 1 mM glucose, reoxygenation two hours
Protocol: A. Isolation and Culture of Primary Neonate Myocytes.
The following materials are employed: • 10× Heart Dissection Solution (HDS) contains the following components (g/l) in tissue grade water: NaCl, 68; HEPES, 47.6; NaH2PO4, 2; Glucose, 10; KCl, 4; MgSO4, 1, pH adjusted to 7.4. Prior to filter sterilization of diluted (1×HDS) solution, 10 mg phenol red is added to each 500 milliliters of medium. • Transferrin and Bovine Insulin (available from Life Technologies) are resuspended at a concentration of 4 mg/ml in tissue culture grade water. • DMEM-F12—DMEM/F12, powder, 1:1 containing glutamine and pyridoxine hydrochloride (available from Life Technologies). To one liter equivalent of the powder is added 2.43 g of sodium bicarbonate and 10 ml of 100× Penicillin/Streptomycin in 950 ml of tissue culture grade water with stirring. The pH is adjusted to 7.2 with 1M HCl and volume adjusted to 1 liter. The solution is filter sterilized, followed by the addition of 2.5 ml of 4 mg/ml Transferrin, 250 μl 4 mg/ml Insulin and 30.7 mg of bromodeoxyuridine. • DMEM-F12-5% FBS is also prepared for pre-coating the tissue culture plates and initial suspension of the cardiomyocyte pellet. • Collagenase solution-57.1 mg of collagenase is resuspended in 140 ml 1×HDS.
Tissue culture ware is pre-coated with DMEM-F12-5% FBS by incubating […] per well of a 96-well plate and 0.5 ml per 24-well plate at 37° C.
Two-day old rat pups are removed from their mothers and placed in a sterile container. Pups are dipped quickly into 70% alcohol, then decapitated and the body placed in an empty sterile tissue culture dish. An incision is made starting at the neck and progressing towards the belly, cutting through the sternum. The heart is removed and placed in a tissue culture dishes containing 1×HDS. The atria are trimmed, and the remaining ventricles are placed into a separate tissue culture dish containing 1×HDS, where they are sectioned into 3-4 pieces each. Ventricles are then transferred to a sterile 250 ml glass flask and the 1×HDS is removed. Twenty milliliters of pre-warmed collagenase solution is added to the ventricles, followed by incubation at 37° C. with shaking. After 20 minutes, the collagenase solution is removed and replaced with 20 ml fresh pre-warmed collagenase. Incubation is continued for an additional 20 minutes. At the end of the incubation, any tissue chunks are allowed to settle prior to removing the collagenase (containing the isolated cardiomyocytes) from the disrupted tissue pieces. The isolated myocytes are added to a 50 ml Falcon tube containing 2 ml Fetal Bovine Serum (FBS). The remaining tissue pieces are subjected to a second digestion by adding 20 ml fresh pre-warmed collagenase and incubating as above for 20 minutes. This second digest is then centrifuged at 1000 rpm for 5 minutes (tabletop centrifuge). The resulting supernatant is discarded, and the cell pellet is suspended with 4 ml FBS. The resulting cell suspension is placed in the incubator at 37° C. This step is repeated several additional times to harvest additional material.
Percoll gradients are prepared by adding 2.5 ml of 10×HDS to 22.5 ml of Percoll (Life Technologies) with mixing (Percoll Stock). Top Gradient solution (11 ml Percoll Stock and 14 ml 1×HDS) and Bottom Gradient solution (13 ml Percoll Stock and 7 ml 1×HDS) are prepared. Four milliliters of the Top Gradient solution is transferred into 6×15 ml sterile Falcon tubes. Three milliliters of the Bottom Gradient solution is placed in each tube by inserting a serological pipette to the bottom of the tube and slowly adding the liquid.
All the digests (6) are pooled in one 50 ml Falcon tube and centrifuged on a tabletop centrifuge at 1000 rpm for 10 minutes. The supernatant is discarded, and the cell pellet is resuspended in 12 ml of 1×HDS. Two milliliters of the cell suspension is added to the top of each gradient. […]

SMILES | calcium transients (Fluo-4) in amounts indicative of ability guard against ischemic damage and maintain contractile function
COc1cc(C=Cc2ccc(C#N)cc2)ccc1O [4-[2-(4-hydroxy-3-methoxy-phenyl)-vinyl]-benzonitrile] | presence of calcium transients
COC(=O)c1ccc(C=Cc2ccc(C)s2)cc1 [4-[2-(5-methyl-thiophen-2-yl)-vinyl]-benzoic acid methyl ester] | presence of calcium transients
COCOc1cc(C=Cc2ccc(C(=O)OC)cc2)cc(CC=C(C)C)c1OCOC [4-{2-[3,4-bis-methoxymethoxy-5-(3-methyl-but-2-enyl)-phenyl]-vinyl}-benzoic acid methyl ester] | presence of calcium transients
COCOc1cc(C=Cc2ccc(C#N)cc2)cc(OCOC)c1CC=C(C)C [4-{2-[3,5-bis-methoxymethoxy-4-(3-methyl-but-2-enyl)-phenyl]-vinyl}-benzonitrile] | presence of calcium transients
COC(=O)c1ccc(C=Cc2cc(CC=C(C)CCC=C(C)C)c(O)c(OC)c2)cc1 [4-{2-[3-(3,7-dimethyl-octa-2,6-dienyl)-4-hydroxy-5-methoxy-phenyl]-vinyl}-benzoic acid methyl ester] | presence of calcium transients
COc1cc(C=Cc2ccc(C#N)cc2)cc(CC=C(C)CCC=C(C)C)c1O [4-{2-[3-(3,7-dimethyl-octa-2,6-dienyl)-4-hydroxy-5-methoxy-phenyl]-vinyl}-benzonitrile] | presence of calcium transients
COCOc1c(CC=C(C)CCC=C(C)C)cc(C=Cc2ccc(C#N)cc2)cc1OC [4-{2-[3-(3,7-dimethyl-octa-2,6-dienyl)-5-methoxy-4-methoxymethoxy-phenyl]-vinyl}-benzonitrile] | presence of calcium transients
COCOc1c(CC=C(C)C)cc(C=Cc2ccc(C(=O)OC)cc2)cc1OC [4-{2-[3-methoxy-4-methoxymethoxy-5-(3-methyl-but-2-enyl)-phenyl]-vinyl}-benzoic acid methyl ester] | presence of calcium transients
COCOc1cc(C=Cc2ccc(C(=O)OC)cc2)cc(OCOC)c1CC=C(C)CCC=C(C)C [4-{2-[4-(3,7-dimethyl-octa-2,6-dienyl)-3,5-bis-methoxymethoxy-phenyl]-vinyl}-benzoic acid methyl ester] | presence of calcium transients
COCOc1cc(C=Cc2ccc(C#N)cc2)cc(OCOC)c1CC=C(C)CCC=C(C)C [4-{2-[4-(3,7-dimethyl-octa-2,6-dienyl)-3,5-bis-methoxymethoxy-phenyl]-vinyl}-benzonitrile] | presence of calcium transients
Oc1cc(-c2ccc(C=Cc3ccc(O)c(O)c3)cc2)n[nH]1 [4-{2-[4-(5-hydroxy-1H-pyrazol-3-yl)-phenyl]-vinyl}-benzene-1,2-diol] | presence of calcium transients
COCOc1ccc(C=C2SC(=O)NC2=O)cc1OCOC [5-(3,4-bis-methoxymethoxy-benzylidene)-thiazolidine-2,4-dione] | presence of calcium transients
O=C1NC(=O)C(=Cc2ccc(O)c(O)c2)S1 [5-(3,4-dihydroxy-benzylidene)-thiazolidine-2,4-dione] | presence of calcium transients
COCOc1cc(C=Cc2cc(OC)c(OCOC)c(OC)c2)cc(OCOC)c1CC=C(C)C [5-[2-(3,5-dimethoxy-4-methoxymethoxy-phenyl)-vinyl]-2-(3-methyl-but-2-enyl)-1,3-(bis-methoxymethoxy)-benzene] | presence of calcium transients
COCOC(=O)c1cc(C=Cc2ccc(C(=O)OC)cc2)ccc1OCOC [5-[2-(4-methoxycarbonyl-phenyl)-vinyl]-2-methoxymethoxy-benzoic acid methoxymethyl ester] | presence of calcium transients
O=[N+]([O-])c1ccc(C=Cc2cc(O)cc(O)c2)cc1 [5-[2-(4-nitro-phenyl)-vinyl]-benzene-1,3-diol] | presence of calcium transients
Cc1c(C)c2c(c(COc3ccc(C=C4SC(=O)NC4=O)cc3)c1O)CCC(C)(CCCC(C)CCCC(C)CCCC(C)C)O2 (stereo not shown) [5-{4-[6-hydroxy-2,7,8-trimethyl-2-(4,8,12-trimethyl-tridecyl)-chroman-5-ylmethoxy]-benzylidene}-thiazolidine-2,4-dione] | presence of calcium transients
COCOc1ccc(C=Cc2ccc(N(C)C)cc2)cc1OCOC [{4-[2-(3,4-bis-methoxymethoxy-phenyl)-vinyl]-phenyl}-dimethyl-amine] | presence of calcium transients
CNc1ccc(C=Cc2ccc(OCOC)c(OCOC)c2)cc1 [{4-[2-(3,4-bis-methoxymethoxy-phenyl)-vinyl]-phenyl}-methyl-amine] | presence of calcium transients
